These results are taken from ChEMBL document CHEMBL3507680, “University of Dundee, Gates Library screen for HepG2 cell viability”.

The nature of the series: Human HepG2 cell viability assay in 384 well format. Format: toxicity, cell-based. Set-up: dose 125 nL, time 70.5 hour; cytotoxicity at 70.5 h: concentration not given beside the values. Conditions: HepG2 cells, read-out: Inhibition.
As for `CC(c1ccncc1)N1Cc2nc(N(C)C)ncc2C1=O` (stereo not given), the cytotoxicity at 70.5 h is -2.18%. The value for `COc1cc(CN(C)Cc2ccncc2)c(SC)cc1OC` was -10.7%; that for `COC(=O)c1ccccc1S(=O)(=O)NC(=O)c1cccc2c1OCCO2` was -100%. The value for `COc1cccc(C(=O)N2CCN(C(=O)CCCn3ccnc3)CC2)c1` was 26.1%; that for `Cc1cccc(-c2nc(C)nn2CN2CCN(c3ncccn3)CC2)c1` was -5.76%.

`N#Cc1cccnc1N1CCN(S(=O)(=O)NCc2ccccc2)CC1`: the cytotoxicity at 70.5 h is -18.9%. On to `N#Cc1ncn(CC(=O)Nc2cc(Cl)ccc2F)n1`, for which the cytotoxicity at 70.5 h is -3.28%. As to `Nc1cc2c(nn1)CCN(C(=O)c1csc(-c3cccs3)n1)C2`, the cytotoxicity at 70.5 h was -6.75%. In the case of `CCc1ccc(NC(=O)N2C[C@H]3C[C@H](C(=O)N4CCCC4)[C@@H](C2)O3)cc1`, the cytotoxicity at 70.5 h was found to be 21%.

In the case of `CNC(=O)c1cccc(NCC(=O)Nc2cc(C)nn2C)c1C`, the cytotoxicity at 70.5 h was -14%. In the case of `O=c1cc2c(nn1CN1CCC(c3ccccc3)CC1)CCC2`, the cytotoxicity at 70.5 h is -17.6%. Then `Cc1c(C(=O)NS(=O)(=O)c2ccc(F)cc2)cnn1CC(C)C`, with 20.5%; and `CCCC(N)CNS(=O)(=O)Cc1cccc(C#N)c1` (stereo not given), with -3.64%; and `O=C(c1cc(=O)c(OCc2ccccc2F)co1)N1CCSCC1`, with -3.38%. The value for `CCc1ccccc1OC1CN(C(=O)c2cccs2)C1` was 7.24%. The value for `CCc1ccccc1OCCN1CC[C@@]2(O)CCNC[C@H]2C1` was -3.34%; that for `Cc1ncsc1CN1CC[C@H]2OCC[C@@]2(C(=O)NC(C)C)C1` was 33.4%; that for `CCCc1noc(CCCC(=O)N2CCCC(n3ccnc3C)C2)n1` (stereo not given) was -2.44%. On to `CCc1c(C)nc2n(c1=O)CC(C(=O)Nc1nc3c(s1)CCCC3)CS2` (stereo not given), for which the cytotoxicity at 70.5 h amounted to 12.5%. The value for `O=C([C@H]1COC[C@H]2CN(Cc3ccco3)C[C@H]21)N1CCCO1` was 5.11%; that for `Cc1cn2c(n1)CCC(NC(=O)c1c[nH]c(C)n1)C2` (stereo not given) was -5.66%; that for `c1cnc2c(c1)cc([C@@H]1CCCO1)n2CCN1CCCCC1` was 0.422%. The value for `COc1ccccc1NCC(=O)NCc1cc[nH]n1` was 26.9%; that for `Cc1ccccc1C(CNC(=O)CSc1nnc(N)s1)N(C)C` (stereo not given) was -6.4%; that for `NC(=O)CN(Cc1ccc(Br)cc1)C(=O)c1cnccn1` was -5.94%. Then `Cc1nnc(SCC(=O)N2CCC3(CC2)c2ccccc2CC3O)o1` (stereo not given), with 20.7%. With `CCc1nnc(CN(CC)C(=O)C2CCC(=O)N(C3CCCC3)C2)o1` (stereo not given), the cytotoxicity at 70.5 h is -4.66%. The value for `Cn1cc(CC(=O)N2CCCC(c3ccn[nH]3)C2)cn1` (stereo not given) was -1.63%; that for `COCCO[C@H]1CCN(Cc2cnn(C)c2)[C@H]1Cc1cccnc1` was -3.42%. Then `CCS(=O)(=O)CC(=O)Nc1c(C)cnn1Cc1cc(F)ccc1F`, with 25.7%; and `Cc1nn(CC(C)C)c(N(C)C)c1CNCCC(=O)NC(C)C`, with 23%. Then `O=C1CC2(CCN(CCO)CC2)CN1Cc1cc(F)cc(F)c1`, with -7.72%; and `CC(C)c1cc(NC(=O)Cn2ccc(=O)c3ccccc32)[nH]n1`, with 5.53%. In the case of `c1cncc(CN2CCCCC2c2ccc(Nc3cnccn3)nc2)c1` (stereo not given), the cytotoxicity at 70.5 h is -5.32%.

On to `O=S(=O)(c1cccnc1)N1C[C@H]2CCC[C@@]2(COc2ccccn2)C1`, for which the cytotoxicity at 70.5 h was -7.2%. Then `CN(Cc1ccc2c(c1)OCO2)Cc1nc(Cc2ccccc2)no1`, with -5.91%; and `CC(C)CN1C[C@H]2CCN(Cc3cccnc3)CC[C@H]2S1(=O)=O`, with -10.9%. For the compound `COC[C@@]12CCO[C@@H]1CCN(Cc1ccc(C)s1)C2`, the cytotoxicity at 70.5 h stood at 15.9%.

On to `Cc1csc(CN2C[C@@H]3COC[C@]3(C(=O)NCc3ccco3)C2)n1`, for which the cytotoxicity at 70.5 h turned out to be 14.6%. The value for `Cc1cc(C(=O)NCc2ccccn2)no1` was -6.09%; that for `O=C(c1cc2c(s1)CCC2)N1CCC(c2cnccn2)CC1` was -6.29%. Then `CCSc1cccc(NCc2cccnc2)c1`, with -16.6%; and `NC(=O)N1C[C@H](NC(=O)c2cscn2)[C@@H]2OCCC[C@@H]21`, with -6.33%.

Take `COCCN1CCCc2sc(C(=O)NCC3CCCO3)nc21` (stereo not given): the cytotoxicity at 70.5 h was determined as 31.2%. Then `c1cc2nccc(CC3CCCN(Cc4c[nH]cn4)CC3)c2cn1` (stereo not given), with -0.459%. `Cc1ccnc(N2CCC(C(N)=O)CC2)n1`: the cytotoxicity at 70.5 h came to 32.9%. The value for `COCCN(Cc1ccoc1)C(=O)c1cccnc1SC` was -0.295%; that for `CC1(NC(=O)CC2CCc3ccccc32)CCOCC1` (stereo not given) was -2.46%. Then `O=C(CN1CCN(CCO)CC1)NCCc1c(F)cccc1F`, with -1.38%; and `O=C(NCC(Cc1cccc(F)c1)N1CCCC1=O)c1ccc[nH]c1=O` (stereo not given), with -16.4%.

Take `CC(C)c1ocnc1C(=O)N1CCCC(c2ccn[nH]2)C1` (stereo not given): the cytotoxicity at 70.5 h is -3.87%. Then `Cc1cnc(C(C)(C)NC(=O)NCc2cccnc2OC(C)C)s1`, with 2.79%; and `Cc1cccc(C2CCCCCN2Cc2cn(C)nc2C)c1` (stereo not given), with -9.15%. The value for `COc1ccc(-c2nnc([C@H]3CCN(C4CCC4)C3)o2)cc1` was -0.264%; that for `CC(NC(=O)NCCCn1cncn1)c1ccc(C(F)(F)F)cc1` (stereo not given) was -7.5%; that for `Cc1nn(C)c(C)c1NC(=O)CCn1ncc2ccccc21` was 9.95%.

In the case of `Cc1ccc(OCCC(=O)NC2CC(=O)N(C)C2)cc1C` (stereo not given), the cytotoxicity at 70.5 h is -6.43%.

In the case of `CN(c1ccc(C(N)=O)nn1)C1CCC1`, the cytotoxicity at 70.5 h was -15.8%. On to `Cc1cccc(CC(=O)NS(=O)(=O)c2ccc(F)c(F)c2)c1`, for which the cytotoxicity at 70.5 h was 8.16%. Then `O=C(CNCC1CCCN1c1cccnn1)NCCc1cccs1` (stereo not given), with -1.9%; and `Cc1ccc(C(=O)N2CCCN(Cc3cccs3)CC2)c(=O)[nH]1`, with -0.458%; and `CC(C)(C)c1cc(NC(=O)CN2CCCC2Cn2cncn2)on1` (stereo not given), with 21.1%.

Take `COc1ccccc1CC(=O)N1CCCC(n2nc(C)nc2C)C1` (stereo not given): the cytotoxicity at 70.5 h is -13%. The value for `CCc1c(C(=O)NCC2CCS(=O)(=O)C2)cnn1-c1ccccc1` (stereo not given) was -4.41%; that for `O=C([C@@H]1CC[C@@H]2[C@@H](CCN2Cc2cccc(F)c2)O1)N1CCCCO1` was 5.95%.

Turning to `CCN1CCOCC12CCN(C(=O)C1CCC1)CC2`, the cytotoxicity at 70.5 h amounted to 14.1%. Then `c1coc(-c2[nH]c3ncccc3c2CN2CCCOCC2)c1`, with -4.25%. In the case of `CNc1nc(CNC(=O)Nc2cccc(C)c2Cl)cs1`, the cytotoxicity at 70.5 h is -1.43%. Then `CN(Cc1cnc(C(C)(C)C)nc1)Cc1nc2ccc(F)cc2[nH]1`, with -5.62%; and `NC1CCN(C(=O)c2c(F)cccc2Br)CC1`, with -15.6%. Regarding `CCC[C@@H]1CN(Cc2cnc(-c3cccs3)nc2)C[C@H]1C(=O)O`, the cytotoxicity at 70.5 h was -0.697%. For `O=C(NCCn1ccnc1)c1cc(Br)c[nH]1`, the cytotoxicity at 70.5 h is -8.18%. For `CCOC(=O)CN1CCC(C(=O)c2cc(F)ccc2F)CC1`, the cytotoxicity at 70.5 h amounted to 34.9%. The value for `Cc1cc(C)c(CNC(=O)NCc2ccc3c(c2)OCCO3)c(=O)[nH]1` was 0.304%.

Regarding `Cn1cccc1C(=O)NCc1cn2c(n1)CN(C(=O)c1ccsc1)CC2`, the cytotoxicity at 70.5 h was -8.13%. Then `Cc1nn(C)c2nc(NCCOCCO)sc12`, with -4.46%; and `COc1cccc(CNCc2c(C(C)C)nn(C)c2N(C)C)c1OC`, with -3.04%. The value for `Cc1ccccc1CN(CCO)Cc1ncc[nH]1` was -12.3%; that for `O=C(CC1CC1)N[C@@H]1CN(c2ncccn2)C[C@@H]2CCCO[C@@H]21` was -7.21%; that for `CCOCCNC(=O)Nc1ccc(OCc2noc(C3CC3)n2)cc1` was -7.9%. Then `Cc1ccn(C)c(=O)c1NC(=O)N(C)Cc1cccc(OC(C)C)c1`, with 18.1%; and `Clc1ccc2cccnc2c1CNC1CCc2ncnn2C1` (stereo not given), with -5.27%; and `O=C(C1CCOC1)N1CCC2(CCCNC2)CC1` (stereo not given), with -8.86%. Consider `CC(=O)N1CCC2(CC1)CN(C(C)C)c1ccc(F)cc12`, for which the cytotoxicity at 70.5 h was -1.77%. The value for `CCCOCCOC(=O)c1ccc2c(c1)[nH]c(=O)n2C` was 11.7%; that for `CC(=O)Nc1cnc(Oc2ccccc2F)nc1` was -5.65%; that for `CN(CC(=O)N1CCCC1)Cc1nc2c(cnn2C)c(=O)[nH]1` was -10.6%. The value for `Cc1noc(C)c1CNC(=O)N(C)C1CCN(c2ccccc2)C1=O` (stereo not given) was -2.2%; that for `CCc1ncc2c(n1)CN(CC(=O)N1CCc3sccc3C1)CC2` was -9%. Then `CCOCC1CN(C(=O)C2CCOCC2)Cc2cnn(C)c21` (stereo not given), with 17.4%; and `CN(C)C(=O)C1CCCN1c1ncnc2ccsc12` (stereo not given), with -10.1%.

Take `O=C(C1CCOCC1)N1CCc2ncnc(-c3ccc(F)cc3)c2CC1`: the cytotoxicity at 70.5 h is -11.3%. Then `CN(C)Cc1nc(C(C)(C)NC(=O)c2ccnn2C)no1`, with 8.69%; and `CCc1nc(C2CCCN2Cc2nnc(C3CC3)o2)no1` (stereo not given), with -3.82%. For the compound `CCN(CC)C(=O)C1CCC(=O)N(CCc2cccc(F)c2)C1` (stereo not given), the cytotoxicity at 70.5 h was found to be 19.7%.

Regarding `O=C(CCCc1ccccn1)N1CCSC2(CCCCC2)C1`, the cytotoxicity at 70.5 h is 18.8%.

Turning to `CCN(Cc1nnsc1Cl)C(C)c1ccc(C#N)cc1` (stereo not given), the cytotoxicity at 70.5 h is -3.23%. The value for `Cc1nn(-c2ccccc2)c(C)c1-c1ccnc(N2CCC(O)CC2)n1` was -5.36%; that for `OC1(CNc2ccc(Br)cn2)CCOCC1` was -2.5%. As to `Cn1cc(C(=O)Nc2ccc3c(c2)CN(C(=O)c2ccco2)CC3)nn1`, the cytotoxicity at 70.5 h was -4.02%.
